Assay results taken from patent US11845752B2, “Substituted imidazo[1,5-a]pyrazines for the treatment of hepatitis B” (ALIGOS THERAPEUTICS, INC., priority 2020, dated 2023).
Read-outs that look alike come from different tables or passages of the source.

Tested on: HBV
Assay: HBV-DNA antiviral assay using HepG2.117 cells (intracellular HBV DNA by qPCR)
Format: cell-based, HBV genotype D
Conditions: HBV DNA inhibition, 3 days incubation, read-out: EC50
Procedure, shortened: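 HepG2.117 cells (stably integrated genotype D HBV, Tet-off) seeded without doxycycline to induce pgRNA, then treated next day with 9 concentrations (4-fold dilutions, 2% DMSO) for 3 days at 37 °C. Intracellular HBV DNA quantified by qPCR against standard curve, viability by ATP content; inhibition relative to DMSO control, EC50/EC90/CC50 by non-linear regression.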

[1] = Hepatitis B virus, HepG2.117, 72 h

| SMILES | EC50 [1] [nM] | EC50 [nM] |
| --- | --- | --- |
| CC1Cn2c(c(C(=O)NCc3ccccc3-c3ccccn3)n(-c3ccc(N4CC5(CN(C)C5)C4)cc3)c2=O)CN1C(=O)c1ccc(Br)c(C(F)(F)F)c1 (single isomer, unassigned) [Compound 77a] | < 50 | – |
| CC1Cn2c(c(C(=O)NCc3ccccc3-c3ccccn3)n(-c3ccc(N4CC5(CN(C)C5)C4)cc3)c2=O)CN1C(=O)c1ccc(Br)c(C(F)(F)F)c1 (single isomer, unassigned) [Compound 77b] | – | 50 to 500 |
| CC1Cn2c(c(C(=O)NCc3ccccc3-c3ncccn3)n(-c3ccc(N4CC5(CN(C)C5)C4)cc3)c2=O)CN1C(=O)c1ccc(Br)c(C(F)(F)F)c1 (single isomer, unassigned) [Compound 78a] | < 50 | – |
| CC1Cn2c(c(C(=O)NCc3ccccc3-c3ccncn3)n(-c3ccc4nn(CC(F)(F)F)cc4c3)c2=O)CN1C(=O)c1ccc(Br)c(C(F)(F)F)c1 (single isomer, unassigned) [Compound 79a] | 50 to 500 | – |
| CC1Cn2c(c(C(=O)NCc3ccccc3-c3ccncn3)n(-c3ccc4nn(CC(F)(F)F)cc4c3)c2=O)CN1C(=O)c1ccc(Br)c(C(F)(F)F)c1 (single isomer, unassigned) [Compound 79b] | – | < 50 |
| CC1Cn2c(c(C(=O)NCc3ccccc3-c3ccncn3)n(-c3ccc(N4CCC5(CC4)CN(C)C5)cc3)c2=O)CN1C(=O)c1ccc(Br)c(C(F)(F)F)c1 (single isomer, unassigned) [Compound 80a] | 50 to 500 | – |
| CC1Cn2c(c(C(=O)NCc3ccccc3-c3ccncn3)n(-c3ccc(N4CCC5(CC4)CN(C)C5)cc3)c2=O)CN1C(=O)c1ccc(Br)c(C(F)(F)F)c1 (single isomer, unassigned) [Compound 80b] | – | 50 to 500 |
| CC1Cn2c(c(C(=O)NCc3ccccc3-c3ncccn3)n(-c3ccc(OCC4(O)CC4)cc3)c2=O)CN1C(=O)c1ccc(Br)c(C(F)(F)F)c1 (single isomer, unassigned) [Compound 81a] | 50 to 500 | – |
| CC1Cn2c(c(C(=O)NCc3ccccc3-c3ncccn3)n(-c3ccc(OCC4(O)CC4)cc3)c2=O)CN1C(=O)c1ccc(Br)c(C(F)(F)F)c1 (single isomer, unassigned) [Compound 81b] | – | < 50 |
| CC1Cn2c(c(C(=O)NCc3ccccc3-c3ccncn3)n(-c3ccc(N4CC5(CCN5C)C4)cc3)c2=O)CN1C(=O)c1ccc(Br)c(C(F)(F)F)c1 (single isomer, unassigned) [Compound 84a] | 50 to 500 | – |
| CC1Cn2c(c(C(=O)NCc3ccccc3-c3ccncn3)n(-c3ccc(N4CC5(CCN5C)C4)cc3)c2=O)CN1C(=O)c1ccc(Br)c(C(F)(F)F)c1 (single isomer, unassigned) [Compound 84b] | – | < 50 |
| CC1Cn2c(c(C(=O)NCc3ccccc3-c3ccncn3)n(-c3ccc(N4CCC5(CN(C)C5)C4)cc3)c2=O)CN1C(=O)c1ccc(Br)c(C(F)(F)F)c1 (single isomer, unassigned) [Compound 88a] | < 50 | – |
| CC1Cn2c(c(C(=O)NCc3ccccc3-c3ccncn3)n(-c3ccc(N4CCC5(CN(C)C5)C4)cc3)c2=O)CN1C(=O)c1ccc(Br)c(C(F)(F)F)c1 (single isomer, unassigned) [Compound 88b] | – | 50 to 500 |
| CC1Cn2c(c(C(=O)NCc3ccccc3-c3ccncn3)n(-c3ccc4oc(N)nc4c3)c2=O)CN1C(=O)c1ccc(Br)c(Cl)c1 (single isomer, unassigned) [Compound 92a] | 500 to 5000 | – |
| CC1Cn2c(c(C(=O)NCc3ccccc3-c3ccncn3)n(-c3ccc4oc(N)nc4c3)c2=O)CN1C(=O)c1ccc(Br)c(Cl)c1 (single isomer, unassigned) [Compound 92b] | – | 500 to 5000 |
| CC1Cn2c(c(C(=O)NCc3ccccc3-c3ccncn3)n(-c3ccc4oc(N)nc4c3)c2=O)CN1C(=O)c1ccc(Br)c(C(F)(F)F)c1 (single isomer, unassigned) [Compound 93a, (6R*)-2-(2-amino-1,3-benzoxazol-5-yl)-7-[4-bromo-3-(trifluoromethyl)benzoyl]-6-methyl-3-oxo-N-{[2-(pyrimidin-4-yl)phenyl]methyl}-5H,6H,8H-imidazo[1,5-a]pyrazine-1-carboxamide] | – | 500 to 5000 |
| CC1Cn2c(c(C(=O)NCc3ccccc3-c3ccncn3)n(-c3ccc4oc(N)nc4c3)c2=O)CN1C(=O)c1ccc(Br)c(C(F)(F)F)c1 (single isomer, unassigned) [Compound 93b, (6S*)-2-(2-amino-1,3-benzoxazol-5-yl)-7-[4-bromo-3-(trifluoromethyl)benzoyl]-6-methyl-3-oxo-N-{[2-(pyrimidin-4-yl)phenyl]methyl}-5H,6H,8H-imidazo[1,5-a]pyrazine-1-carboxamide] | – | 50 to 500 |
| CN[C@H](C)COc1ccc(-n2c(C(=O)NCc3ccccc3-c3ncccn3)c3n(c2=O)C[C@@H](C)N(C(=O)c2ccc(Br)c(C(F)(F)F)c2)C3)cc1 (single isomer, unassigned) [Compound 95a] | 50 to 500 | – |
| C[C@H](COc1ccc(-n2c(C(=O)NCc3ccccc3-c3ncccn3)c3n(c2=O)C[C@@H](C)N(C(=O)c2ccc(Br)c(C(F)(F)F)c2)C3)cc1)N1CCOCC1 (single isomer, unassigned) [Compound 96a] | < 50 | – |
| C[C@H](COc1ccc(-n2c(C(=O)NCc3ccccc3-c3ncccn3)c3n(c2=O)C[C@@H](C)N(C(=O)c2ccc(Br)c(C(F)(F)F)c2)C3)cc1)N(C)C (single isomer, unassigned) [Compound 97a] | 50 to 500 | – |

| SMILES | EC50 [1] [nM] | EC50 [nM] |
| --- | --- | --- |
| C[C@H](COc1ccc(-n2c(C(=O)NCc3ccccc3-c3ncccn3)c3n(c2=O)C[C@H](C)N(C(=O)c2ccc(Br)c(C(F)(F)F)c2)C3)cc1)N(C)C (single isomer, unassigned) [Compound 97b] | < 50 | – |
| CC1Cn2c(c(C(=O)NCc3ccccc3-c3nccc(C(F)(F)F)n3)n(-c3ccc(N4CC5(CN(C)C5)C4)cc3)c2=O)CN1C(=O)c1ccc(Br)c(C(F)(F)F)c1 (single isomer, unassigned) [Compound 98a] | – | 50 to 500 |
| CC1Cn2c(c(C(=O)NCc3ccccc3-c3nccc(C(F)(F)F)n3)n(-c3ccc(N4CC5(CN(C)C5)C4)cc3)c2=O)CN1C(=O)c1ccc(Br)c(C(F)(F)F)c1 (single isomer, unassigned) [Compound 98b] | – | 500 to 5000 |
| CC1Cn2c(c(C(=O)NCc3ccccc3-c3ccn(CC(F)(F)F)n3)n(-c3ccc(N4CC5(CN(C)C5)C4)cc3)c2=O)CN1C(=O)c1ccc(Br)c(C(F)(F)F)c1 (single isomer, unassigned) [Compound 99a] | 50 to 500 | – |
| CC1Cn2c(c(C(=O)NCc3ccccc3-c3ccn(CC(F)(F)F)n3)n(-c3ccc(N4CC5(CN(C)C5)C4)cc3)c2=O)CN1C(=O)c1ccc(Br)c(C(F)(F)F)c1 (single isomer, unassigned) [Compound 99b] | – | 50 to 500 |
| CC1Cn2c(c(C(=O)NCc3ccccc3-c3ncccn3)n(-c3ccc4c(cnn4CC(F)(F)F)c3)c2=O)CN1C(=O)c1ccc(Br)c(C(F)(F)F)c1 (single isomer, unassigned) [Compound 100a] | < 50 | – |
| CC1Cn2c(c(C(=O)NCc3ccccc3-c3ncccn3)n(-c3ccc4c(cnn4CC(F)(F)F)c3)c2=O)CN1C(=O)c1ccc(Br)c(C(F)(F)F)c1 (single isomer, unassigned) [Compound 100b] | – | < 50 |
| CC1Cn2c(c(C(=O)NCc3ccccc3-c3ncccn3)n(-c3ccc4c(cnn4C[C@@H](O)C(F)(F)F)c3)c2=O)CN1C(=O)c1ccc(Br)c(C(F)(F)F)c1 (single isomer, unassigned) [Compound 101a] | 50 to 500 | – |
| CC1Cn2c(c(C(=O)NCc3ccccc3-c3ncccn3)n(-c3ccc4c(c3)nnn4CC(F)(F)F)c2=O)CN1C(=O)c1ccc(Br)c(C(F)(F)F)c1 (single isomer, unassigned) [Compound 103a] | 50 to 500 | – |
| CC1Cn2c(c(C(=O)NCc3ccccc3-c3ncccn3)n(-c3ccc4c(c3)nnn4CC(F)(F)F)c2=O)CN1C(=O)c1ccc(Br)c(C(F)(F)F)c1 (single isomer, unassigned) [Compound 103b] | – | < 50 |
| CC1Cn2c(c(C(=O)NCc3c(F)cccc3Cl)n(-c3ccc4c(cnn4CC(F)(F)F)c3)c2=O)CN1C(=O)c1ccc(Br)c(C(F)(F)F)c1 (single isomer, unassigned) [Compound 104a] | < 50 | – |
| CC1Cn2c(c(C(=O)NCc3c(F)cccc3Cl)n(-c3ccc4c(cnn4CC(F)(F)F)c3)c2=O)CN1C(=O)c1ccc(Br)c(C(F)(F)F)c1 (single isomer, unassigned) [Compound 104b] | – | 50 to 500 |
| CC1Cn2c(c(C(=O)NCc3ccccc3-c3ncccn3)n(-c3ccc4nn(C[C@@H](O)C(F)(F)F)cc4c3)c2=O)CN1C(=O)c1ccc(Br)c(C(F)(F)F)c1 (single isomer, unassigned) [Compound 105a] | < 50 | – |
| CC1Cn2c(c(C(=O)NCc3c(F)cccc3Cl)n(-c3ccc(N4CC5(CN(C)C5)C4)cc3)c2=O)CN1C(=O)c1ccc(Br)c(C(F)(F)F)c1 (single isomer, unassigned) [Compound 106a] | 50 to 500 | – |
| CC1Cn2c(c(C(=O)NCc3c(F)cccc3Cl)n(-c3ccc(N4CC5(CN(C)C5)C4)cc3)c2=O)CN1C(=O)c1ccc(Br)c(C(F)(F)F)c1 (single isomer, unassigned) [Compound 106b] | – | 50 to 500 |
| CC1Cn2c(c(C(=O)NCc3ccccc3-c3ncccn3)n(-c3ccc4oncc4c3)c2=O)CN1C(=O)c1ccc(Br)c(C(F)(F)F)c1 (single isomer, unassigned) [Compound 108a] | 500 to 5000 | – |
| CC1Cn2c(c(C(=O)NCc3ccccc3-c3ncccn3)n(-c3ccc4oncc4c3)c2=O)CN1C(=O)c1ccc(Br)c(C(F)(F)F)c1 (single isomer, unassigned) [Compound 108b] | – | 500 to 5000 |
| CC1Cn2c(c(C(=O)NCc3ccccc3-c3ncccn3)n(-c3ccc4c(cnn4C4CNC4)c3)c2=O)CN1C(=O)c1ccc(Br)c(C(F)(F)F)c1 (single isomer, unassigned) [Compound 109a] | 500 to 5000 | – |
| CC1Cn2c(c(C(=O)NCc3ccccc3-c3ncccn3)n(-c3ccc4c(cnn4C4CNC4)c3)c2=O)CN1C(=O)c1ccc(Br)c(C(F)(F)F)c1 (single isomer, unassigned) [Compound 109b] | – | 500 to 5000 |
